Assay results taken from patent publication US20160176880A1, “SUBSTITUTED IMIDAZO[1,2-A]PYRAZINECARBOXAMIDES AND USE THEREOF” (BAYER PHARMA AKTIENGESELLSCHAFT, priority 2013, published 2016).
Structures can show the parent of a compound that is named as a salt.

Target: T1, recombinant guanylate cyclase reporter cell line (Rattus norvegicus, UniProt P19686+P20595)
T1 construct: expressed in transfected cells
T1 sequence (P19686 1-690): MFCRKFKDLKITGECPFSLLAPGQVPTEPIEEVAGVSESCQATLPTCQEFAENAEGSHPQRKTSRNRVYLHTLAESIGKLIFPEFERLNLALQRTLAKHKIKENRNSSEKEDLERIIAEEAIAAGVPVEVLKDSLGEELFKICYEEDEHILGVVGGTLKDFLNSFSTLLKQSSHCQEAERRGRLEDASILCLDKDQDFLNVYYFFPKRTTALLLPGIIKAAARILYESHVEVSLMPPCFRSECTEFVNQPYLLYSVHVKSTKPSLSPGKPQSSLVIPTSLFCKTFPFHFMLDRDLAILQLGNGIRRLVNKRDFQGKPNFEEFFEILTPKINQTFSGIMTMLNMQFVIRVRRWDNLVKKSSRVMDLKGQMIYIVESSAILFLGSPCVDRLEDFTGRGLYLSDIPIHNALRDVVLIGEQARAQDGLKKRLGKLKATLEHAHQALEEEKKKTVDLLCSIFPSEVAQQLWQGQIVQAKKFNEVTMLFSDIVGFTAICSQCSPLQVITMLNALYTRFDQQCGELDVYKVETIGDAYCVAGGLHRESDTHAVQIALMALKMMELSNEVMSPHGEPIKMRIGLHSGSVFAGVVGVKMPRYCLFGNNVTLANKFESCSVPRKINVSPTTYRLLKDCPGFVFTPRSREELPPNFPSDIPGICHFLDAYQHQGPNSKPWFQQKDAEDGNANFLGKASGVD
T1 sequence (P20595 1-619): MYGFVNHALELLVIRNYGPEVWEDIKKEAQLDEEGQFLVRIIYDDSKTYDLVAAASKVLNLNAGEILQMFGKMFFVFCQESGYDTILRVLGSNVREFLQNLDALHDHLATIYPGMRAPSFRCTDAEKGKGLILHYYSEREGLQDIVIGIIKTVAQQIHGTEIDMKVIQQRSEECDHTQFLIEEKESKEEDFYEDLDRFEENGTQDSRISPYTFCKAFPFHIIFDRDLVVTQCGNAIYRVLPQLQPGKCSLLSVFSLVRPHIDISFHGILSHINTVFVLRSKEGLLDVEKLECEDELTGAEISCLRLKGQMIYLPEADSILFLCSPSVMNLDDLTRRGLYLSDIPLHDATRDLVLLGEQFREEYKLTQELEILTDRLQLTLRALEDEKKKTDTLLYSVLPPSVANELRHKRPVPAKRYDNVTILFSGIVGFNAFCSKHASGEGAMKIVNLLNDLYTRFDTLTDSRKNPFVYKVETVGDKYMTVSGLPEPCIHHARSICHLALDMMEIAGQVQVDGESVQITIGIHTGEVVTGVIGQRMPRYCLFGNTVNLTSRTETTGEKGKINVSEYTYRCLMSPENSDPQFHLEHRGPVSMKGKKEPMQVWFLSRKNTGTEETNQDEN
Assay: Effect on a recombinant guanylate cyclase reporter cell line
Assay type: cell-based
Details: MEC = minimum effective concentration; in some cases mean values for individual determinations
Procedure: B-2. Effect on a Recombinant Guanylate Cyclase Reporter Cell Line
The cellular action of the compounds of the invention is determined using a recombinant guanylate cyclase reporter cell line, as described in F. Wunder et al., Anal. Biochem. 339, 104-112 (2005).
Representative MEC values (MEC=minimum effective concentration) for the compounds of the invention are shown in the table below (in some cases as mean values for individual determinations): […]

SMILES | MEC [µM]
Cc1cn2c(C(=O)NCC3CCC(C#N)CC3)c(C)nc2c(OCc2c(F)cccc2F)n1 (mixture of isomers) [Example 50, N-[(4-cyanocyclohexyl)methyl]-8-[(2,6-difluorobenzyl)oxy]-2,6-dimethylimidazo[1,2-a]pyrazine-3-carboxamide trifluoroacetate (cis/trans mixture)] | 1.0
Cc1cn2c(C(=O)NNC3CCCC3O)c(C)nc2c(OCc2c(F)cccc2F)n1 (mixture of isomers) [Example 54, 8-[(2,6-difluorobenzyl)oxy]-N′-(2-hydroxycyclopentyl)-2,6-dimethylimidazo[1,2-a]pyrazine-3-carbohydrazide trifluoroacetate (mixture of stereoisomers)] | 1.0
Cc1cn2c(C(=O)NCC(C)(N)CC(C)C)c(C)nc2c(OCc2c(F)cccc2F)n1 (racemic) [Example 5, rac-N-(2-Amino-2,4-dimethylpentyl)-8-[(2,6-difluorobenzyl)oxy]-2,6-dimethylimidazo[1,2-a]pyrazine-3-carboxamide] | 1
Cc1cn2c(C(=O)NC(C)C#N)c(C)nc2c(OCc2c(F)cccc2F)n1 (racemic) [Example 14, rac-N-(1-cyanoethyl)-8-[(2,6-difluorobenzyl)oxy]-2,6-dimethylimidazo[1,2-a]pyrazine-3-carboxamide] | 3
Cc1cn2c(C(=O)NC3CC3c3ccccc3)c(C)nc2c(OCc2c(F)cccc2F)n1 (racemic) [Example 17, rac-8-[(2,6-difluorobenzyl)oxy]-2,6-dimethyl-N-(2-phenylcyclopropyl)imidazo[1,2-a]pyrazine-3-carboxamide] | 10
Cc1cn2c(C(=O)NCC(C)(N)C3CC3)c(C)nc2c(OCc2c(F)cccc2F)n1 (racemic) [Example 20, rac-N-(2-amino-2-cyclopropylpropyl)-8-[(2,6-difluorobenzyl)oxy]-2,6-dimethylimidazo[1,2-a]pyrazine-3-carboxamide] | 3
Cc1cn2c(C(=O)NC(C)c3nc(C(F)(F)F)no3)c(C)nc2c(OCc2c(F)cccc2F)n1 (racemic) [Example 26, rac-8-[(2,6-difluorobenzyl)oxy]-2,6-dimethyl-N-{1-[3-(trifluoromethyl)-1,2,4-oxadiazol-5-yl]ethyl}imidazo[1,2-a]pyrazine-3-carboxamide] | 3
Cc1cn2c(C(=O)NC(C)COCC(F)(F)F)c(C)nc2c(OCc2c(F)cccc2F)n1 (racemic) [Example 31, rac-8-[(2,6-difluorobenzyl)oxy]-2,6-dimethyl-N-[1-(2,2,2-trifluoroethoxy)propan-2-yl]imidazo[1,2-a]pyrazine-3-carboxamide] | 3
Cc1cn2c(C(=O)NC(C#N)c3ccc(Cl)cc3)c(C)nc2c(OCc2c(F)cccc2F)n1 (racemic) [Example 46, rac-N-[(4-chlorophenyl)(cyano)methyl]-8-[(2,6-difluorobenzyl)oxy]-2,6-dimethylimidazo[1,2-a]pyrazine-3-carboxamide] | 10
Cc1cn2c(C(=O)NCC(C)(N)CC(F)F)c(C)nc2c(OCc2c(F)cccc2F)n1 (single isomer, unassigned; enantiomer a) [Example 41, ent-N-(2-Amino-4,4-difluoro-2-methylbutyl)-8-[(2,6-difluorobenzyl)oxy]-2,6-dimethylimidazo[1,2-a]pyrazine-3-carboxamide (enantiomer A)] | 0.65
Cc1cn2c(C(=O)NCC(C)(N)CF)c(C)nc2c(OCc2c(F)cccc2F)n1 (single isomer, unassigned; enantiomer b) [Example 37, ent-N-(2-Amino-3-fluoro-2-methylpropyl)-8-[(2,6-difluorobenzyl)oxy]-2,6-dimethylimidazo[1,2-a]pyrazine-3-carboxamide (enantiomer B)] | 0.3
Cc1cn2c(C(=O)NCC(C)(N)CCC(F)(F)F)c(C)nc2c(OCc2c(F)cccc2F)n1 (single isomer, unassigned; enantiomer b) [Example 38, ent-N-(2-Amino-5,5,5-trifluoro-2-methylpentyl)-8-[(2,6-difluorobenzyl)oxy]-2,6-dimethylimidazo[1,2-a]pyrazine-3-carboxamide (enantiomer B)] | 0.3
CCCC(C)(N)CNC(=O)c1c(C)nc2c(OCc3c(F)cccc3F)nc(C)cn12 (single isomer, unassigned; enantiomer b) [Example 39, ent-N-(2-Amino-2-methylpentyl)-8-[(2,6-difluorobenzyl)oxy]-2,6-dimethylimidazo[1,2-a]pyrazine-3-carboxamide (enantiomer B)] | 0.2
Cc1cn2c(C(=O)NCC(C)(N)CCCF)c(C)nc2c(OCc2c(F)cccc2F)n1 (single isomer, unassigned; enantiomer b) [Example 40, ent-N-(2-Amino-5-fluoro-2-methylpentyl)-8-[(2,6-difluorobenzyl)oxy]-2,6-dimethylimidazo[1,2-a]pyrazine-3-carboxamide (enantiomer B)] | 0.3
Cc1cn2c(C(=O)NCC(C)(N)CC(F)F)c(C)nc2c(OCc2c(F)cccc2F)n1 (single isomer, unassigned; enantiomer b) [Example 42, ent-N-(2-Amino-4,4-difluoro-2-methylbutyl)-8-[(2,6-difluorobenzyl)oxy]-2,6-dimethylimidazo[1,2-a]pyrazine-3-carboxamide (enantiomer B)] | 0.3
Cc1cn2c(C(=O)NC(CCCC(F)(F)F)C(C)(C)O)c(C)nc2c(OCc2c(F)cccc2F)n1 (single isomer, unassigned; ent-8) [Example 6, ent-8[(2,6-Difluorobenzyl)oxy]-2,6-dimethyl-N-(7,7,7-trifluoro-2-hydroxy-2-methylheptan-3-yl)imidazo[1,2-a]pyrazine-3-carboxamide] | 3
CCCCC(NC(=O)c1c(C)nc2c(OCc3c(F)cccc3F)nc(C)cn12)C(C)(C)O (single isomer, unassigned; ent-8) [Example 7, ent-8[(2,6-Difluorobenzyl)oxy]-N-(2-hydroxy-2-methylheptan-3-yl)-2,6-dimethylimidazo[1,2-a]pyrazine-3-carboxamide] | 0.3
Cc1cn2c(C(=O)NC(CCC(F)(F)C(F)(F)F)C(C)(C)O)c(C)nc2c(OCc2c(F)cccc2F)n1 (single isomer, unassigned; ent-8) [Example 29, ent-8-[(2,6-difluorobenzyl)oxy]-2,6-dimethyl-N-(6,6,7,7,7-pentafluoro-2-hydroxy-2-methylheptan-3-yl)imidazo[1,2-a]pyrazine-3-carboxamide] | 1
CC[C@](C)(N)CNC(=O)c1c(C)nc2c(OCc3c(F)cccc3F)nc(C)cn12 [Example 1, ent-N-[(2S)-2-Amino-2-methylbutyl]-8-[(2,6-difluorobenzyl)oxy]-2,6-dimethylimidazo[1,2-a]pyrazine-3-carboxamide] | 0.77
CCCC[C@H](C)NC(=O)c1c(C)nc2c(OCc3c(F)cccc3F)nc(C)cn12 [Example 2, 8-[(2,6-Difluorobenzyl)oxy]-N-[(2S)-hexan-2-yl]-2,6-dimethylimidazo[1,2-a]pyrazine-3-carboxamide] | 1
CCCC[C@H](CO)NC(=O)c1c(C)nc2c(OCc3c(F)cccc3F)nc(C)cn12 [Example 3, 8-[(2,6-Difluorobenzyl)oxy]-N-[(2R)-1-hydroxyhexan-2-yl]-2,6-dimethylimidazo[1,2-a]pyrazine-3-carboxamide] | 3
